The source of these data is PubChem BioAssay AID1745844 (Carcinogenic Potency Database (CPDB), 2022).

In this data set the test system is rodent lifetime carcinogenesis bioassay, tumor incidence TD50. As to the kind of experiment: carcinogenic potency in animals, long-term in vivo studies, CPDB compilation (AID 1745844).

Several values for one entry are separate records, joined by “and”; a condition that tells them apart may be missing. Equal entries are not always repeated. Activity calls are given as the source filed them. No rule for the calls is given here.

`OC(c1ccc(Cl)cc1)(c1ccc(Cl)cc1)C(Cl)(Cl)Cl`: the carcinogen call was “negative (inactive)” (mouse, strain B6C3F1, females, in feed, site: any site (literature study), lesion: several types, types named in the paper, dosed 78 weeks, study length 91 weeks); “negative (inactive)” (rat, strain Osborne-Mendel, females, in feed, site: any site (literature study), lesion: several types, types named in the paper, dosed 78 weeks, study length 111 weeks); “negative (inactive)” (rat, strain Osborne-Mendel, males, in feed, site: any site (literature study), lesion: several types, types named in the paper, dosed 78 weeks, study length 110 weeks). Further, the TD50 reads like this: (mouse, strain B6C3F1, males, in feed, site: any site (literature study), lesion: several types, types named in the paper, dosed 78 weeks, study length 91 weeks) 59.2 mg/kg/day; (mouse, strain B6C3F1, males, in feed, site: liver, lesion: hepatocellular adenoma + hepatocellular carcinoma + neoplastic nodule, dosed 78 weeks, study length 91 weeks) 32.9 mg/kg/day; (mouse, strain B6C3F1, males, in feed, site: liver, lesion: hepatocellular adenoma + hepatocellular carcinoma, dosed 78 weeks, study length 91 weeks) 32.9 mg/kg/day; (mouse, strain B6C3F1, males, in feed, site: liver, lesion: hepatocellular carcinoma, dosed 78 weeks, study length 91 weeks) 34.8 mg/kg/day; (mouse, strain B6C3F1, males, in feed, site: lung, lesion: alveolar/bronchiolar adenoma + alveolar/bronchiolar carcinoma, dosed 78 weeks, study length 91 weeks) 616 mg/kg/day; (rat, strain Osborne-Mendel, males, in feed, site: liver, lesion: hepatocellular adenoma + hepatocellular carcinoma + neoplastic nodule, dosed 78 weeks, study length 110 weeks) 517 mg/kg/day.

For the molecule `CC(C)NCC(O)c1ccc2ccccc2c1` (stereo not drawn), the carcinogen call is “negative (inactive)” (mouse, strain CF-1, females, in feed, site: liver, lesion: one or several types, types not named, dosed 78 weeks, study length 78 weeks) and “negative (inactive)” (mouse, strain CF-1, males, in feed, site: liver, lesion: carcinoma, dosed 78 weeks, study length 78 weeks). For the same molecule, the TD50 runs as follows: (mouse, strain CF-1, females, in feed, site: lung, lesion: adenoma, dosed 78 weeks, study length 78 weeks) 1300 mg/kg/day (inactive); (mouse, strain CF-1, males, in feed, site: liver, lesion: adenoma, dosed 78 weeks, study length 78 weeks) 1820 mg/kg/day (inactive); (mouse, strain CF-1, males, in feed, site: lung, lesion: adenoma, dosed 78 weeks, study length 78 weeks) 931 mg/kg/day (inactive); (mouse, strain Not specified, females, in feed, site: thymus gland, lesion: one or several types, types not named, dosed 64 weeks, study length 64 weeks) 408 mg/kg/day; (mouse, strain Not specified, males, in feed, site: thymus gland, lesion: one or several types, types not named, dosed 64 weeks, study length 64 weeks) 1930 mg/kg/day.

For `CC(COc1ccccc1)N(CCCl)Cc1ccccc1` (stereo not drawn), the TD50 was 5.85 mg/kg/day (mouse, strain B6C3F1, females, i.p., site: abdominal cavity, lesion: sarcoma, NOS, dosed 52 weeks, study length 84 weeks); 3.08 mg/kg/day (mouse, strain B6C3F1, females, i.p., site: any site (literature study), lesion: several types, types named in the paper, dosed 52 weeks, study length 84 weeks); 4.95 mg/kg/day (mouse, strain B6C3F1, males, i.p., site: abdominal cavity, lesion: sarcoma, NOS, dosed 51 weeks, study length 83 weeks); 2.17 mg/kg/day (mouse, strain B6C3F1, males, i.p., site: any site (literature study), lesion: several types, types named in the paper, dosed 51 weeks, study length 83 weeks); 5.84 mg/kg/day (mouse, strain B6C3F1, males, i.p., site: liver, lesion: hepatocellular adenoma + hepatocellular carcinoma + neoplastic nodule, dosed 51 weeks, study length 83 weeks); 63 mg/kg/day (mouse, strain B6C3F1, males, i.p., site: lung, lesion: alveolar/bronchiolar adenoma + alveolar/bronchiolar carcinoma, dosed 51 weeks, study length 83 weeks). The TD50 was 1.34 mg/kg/day (rat, strain Sprague-Dawley, females, i.p., site: any site (literature study), lesion: several types, types named in the paper, dosed 52 weeks, study length 83 weeks); 2.36 mg/kg/day (rat, strain Sprague-Dawley, females, i.p., site: peritoneum, lesion: sarcoma, NOS, dosed 52 weeks, study length 83 weeks); 0.555 mg/kg/day (rat, strain Sprague-Dawley, males, i.p., site: any site (literature study), lesion: several types, types named in the paper, dosed 52 weeks, study length 83 weeks); 0.71 mg/kg/day (rat, strain Sprague-Dawley, males, i.p., site: peritoneum, lesion: sarcoma, NOS, dosed 52 weeks, study length 83 weeks).

As for `C=C(C)C#N`, the carcinogen call by setting is: (mouse, strain B6C3F1, females, by gavage, site: any site (literature study), lesion: several types, types named in the paper, dosed 104 weeks, study length 104 weeks) “negative (inactive)”; (mouse, strain B6C3F1, males, by gavage, site: any site (literature study), lesion: several types, types named in the paper, dosed 104 weeks, study length 104 weeks) “negative (inactive)”. Besides, the TD50 reads like this: (mouse, strain B6C3F1, females, by gavage, site: lung, lesion: alveolar/bronchiolar adenoma + alveolar/bronchiolar carcinoma, dosed 104 weeks, study length 104 weeks) 178 mg/kg/day; (mouse, strain B6C3F1, males, by gavage, site: lung, lesion: alveolar/bronchiolar adenoma + alveolar/bronchiolar carcinoma, dosed 104 weeks, study length 104 weeks) 160 mg/kg/day; (rat, strain Fischer 344, females, by gavage, site: any site (literature study), lesion: several types, types named in the paper, dosed 104 weeks, study length 104 weeks) 323 mg/kg/day (inactive); (rat, strain Fischer 344, males, by gavage, site: subcutaneous tissue, lesion: fibrosarcoma + fibrous histiocytoma + sarcoma, dosed 104 weeks, study length 104 weeks) 205 mg/kg/day (inactive).

For the molecule `CN(N=O)c1ncnc2nc[nH]c12`, the TD50 reads like this: (mouse, strain Swiss CD-1, females, in drinking water, site: liver, lesion: several types, types named in the paper, dosed 104 weeks, study length 104 weeks) 63.2 mg/kg/day; (mouse, strain Swiss CD-1, females, in drinking water, site: mammary gland, lesion: carcinoma, dosed 104 weeks, study length 104 weeks) 28.7 mg/kg/day; (mouse, strain Swiss CD-1, females, in drinking water, site: reproductive tract, lesion: several types, types named in the paper, dosed 104 weeks, study length 104 weeks) 15.8 mg/kg/day; (mouse, strain Swiss CD-1, females, in drinking water, site: uterus, lesion: one or several types, types not named, dosed 104 weeks, study length 104 weeks) 84.9 mg/kg/day; (mouse, strain Swiss CD-1, males, in drinking water, site: liver, lesion: several types, types named in the paper, dosed 104 weeks, study length 104 weeks) 62.6 mg/kg/day; (mouse, strain Swiss CD-1, males, in drinking water, site: lung, lesion: one or several types, types not named, dosed 104 weeks, study length 104 weeks) 18 mg/kg/day and 21.6 mg/kg/day.

Regarding `c1ccc(Nc2ccc3ccccc3c2)cc1`, the carcinogen call was “negative (inactive)” (hamster, strain Syrian Golden, females, by gavage, site: any site (literature study), lesion: several types, types named in the paper, dosed 84 weeks, study length 84 weeks); “negative (inactive)” (hamster, strain Syrian Golden, males, by gavage, site: any site (literature study), lesion: several types, types named in the paper, dosed 84 weeks, study length 84 weeks); “negative (inactive)” (rat, strain Fischer 344, females, in feed, site: any site (literature study), lesion: several types, types named in the paper, dosed 103 weeks, study length 104 weeks); “negative (inactive)” (rat, strain Fischer 344, males, in feed, site: any site (literature study), lesion: several types, types named in the paper, dosed 103 weeks, study length 104 weeks); “negative (inactive)” (rat, strain Sprague-Dawley, females, by gavage, site: any site (literature study), lesion: several types, types named in the paper, dosed 136 weeks, study length 136 weeks); “negative (inactive)” (rat, strain Sprague-Dawley, males, by gavage, site: any site (literature study), lesion: several types, types named in the paper, dosed 160 weeks, study length 160 weeks). Further, the TD50 stood at 1080 mg/kg/day (mouse, strain B6AKF1, females, oral dosing, site: any site (literature study), lesion: several types, types named in the paper, dosed 76 weeks, study length 76 weeks); 186 mg/kg/day (mouse, strain B6AKF1, males, oral dosing, site: any site (literature study), lesion: several types, types named in the paper, dosed 76 weeks, study length 76 weeks); 460 mg/kg/day (mouse, strain B6AKF1, males, oral dosing, site: liver, lesion: hepatoma, dosed 76 weeks, study length 76 weeks); 431 mg/kg/day (mouse, strain B6AKF1, males, oral dosing, site: lung, lesion: adenoma, dosed 76 weeks, study length 76 weeks); 10800 mg/kg/day (mouse, strain B6C3F1, females, in feed, site: kidney, lesion: tubular-cell adenoma + tubular-cell adenocarcinoma, dosed 103 weeks, study length 104 weeks); 5630 mg/kg/day (mouse, strain B6C3F1, females, in feed, site: liver, lesion: hepatocellular adenoma + hepatocellular carcinoma + neoplastic nodule, dosed 103 weeks, study length 104 weeks). In addition, the TD50 runs as follows: (mouse, strain B6C3F1, females, oral dosing, site: any site (literature study), lesion: several types, types named in the paper, dosed 76 weeks, study length 76 weeks) 1080 mg/kg/day; (mouse, strain B6C3F1, females, oral dosing, site: liver, lesion: hepatoma, dosed 76 weeks, study length 76 weeks) 1080 mg/kg/day; (mouse, strain B6C3F1, males, in feed, site: any site (literature study), lesion: several types, types named in the paper, dosed 103 weeks, study length 104 weeks) 4510 mg/kg/day; (mouse, strain B6C3F1, males, in feed, site: liver, lesion: hepatocellular adenoma + hepatocellular carcinoma + neoplastic nodule, dosed 103 weeks, study length 104 weeks) 1350 mg/kg/day; (mouse, strain B6C3F1, males, in feed, site: subcutaneous tissue, lesion: fibrosarcoma + neurofibrosarcoma + sarcoma, NOS, dosed 103 weeks, study length 104 weeks) 2380 mg/kg/day (inactive); (mouse, strain B6C3F1, males, oral dosing, site: any site (literature study), lesion: several types, types named in the paper, dosed 76 weeks, study length 76 weeks) 108 mg/kg/day. The molecule also came in with a TD50 (mouse, strain B6C3F1, males, oral dosing, site: liver, lesion: hepatoma, dosed 76 weeks, study length 76 weeks) of 165 mg/kg/day.

Regarding `[O]=[W](=[O])([OH])[OH]`, the carcinogen call by setting is: (rat, strain Long-Evans BLU:(LE), females, in drinking water, site: any site (literature study), lesion: malignant tumor, dosed 149 weeks, study length 149 weeks) “negative (inactive)”; (rat, strain Long-Evans BLU:(LE), females, in drinking water, site: any site (literature study), lesion: several types, types named in the paper, dosed 149 weeks, study length 149 weeks) “negative (inactive)”. Also, the TD50 runs as follows: (rat, strain Long-Evans BLU:(LE), males, in drinking water, site: any site (literature study), lesion: malignant tumor, dosed 136 weeks, study length 136 weeks) 87.7 mg/kg/day (inactive); (rat, strain Long-Evans BLU:(LE), males, in drinking water, site: any site (literature study), lesion: several types, types named in the paper, dosed 136 weeks, study length 136 weeks) 40.1 mg/kg/day (inactive).

In the case of `O=NN1CCNCC1`, the TD50 is, setting by setting: (rat, strain MRC, females, in drinking water, site: any site (literature study), lesion: several types, types named in the paper, dosed 60 weeks, study length 127 weeks) 5.51 mg/kg/day; (rat, strain MRC, males, in drinking water, site: any site (literature study), lesion: several types, types named in the paper, dosed 60 weeks, study length 127 weeks) 21.6 mg/kg/day; (rat, strain MRC, males, in drinking water, site: liver, lesion: hepatoma, dosed 60 weeks, study length 127 weeks) 6.52 mg/kg/day.

With `NCCCC(N)(C(=O)O)C(F)F` (stereo not drawn), the carcinogen call (rat, strain Wistar, males, in feed, site: stomach, glandular, lesion: one or several types, types not named, dosed 70 weeks, study length 70 weeks) is “negative (inactive)”.

`O=[N+]([O-])c1ccc(-c2nc(NCCO)c3ccccc3n2)s1`: the TD50 is, setting by setting: (rat, strain Sprague-Dawley, females, in feed, site: any site (literature study), lesion: several types, types named in the paper, dosed 46 weeks, study length 66 weeks) 1.87 mg/kg/day; (rat, strain Sprague-Dawley, females, in feed, site: intestine, lesion: leiomyosarcoma, dosed 46 weeks, study length 66 weeks) 3.84 mg/kg/day; (rat, strain Sprague-Dawley, females, in feed, site: liver, lesion: bile duct adenoma, dosed 46 weeks, study length 66 weeks) 132 mg/kg/day.
